# Where a name gives a salt, the structure may show the parent alone.
# System: human epidermal keratinocytes
# Assay: Proliferation of epidermal keratinocytes in a co-culture system of dermal papilla cells and epidermal keratinocytes
# Format: cell-based
# Conditions: 0.2 μg/ml, 2 μg/ml, 20 μg/ml, 200 μg/ml, FIG. 5
# Method: Add 500 μl of human epidermal keratinocytes (30,000 cells/ml) to each well of a 24-well MULTIWELL plate, then add a 1.0 μm of cell culture insert, and culture for 1 day. The 1.0 μm of cell culture insert already contains 300 μl of dermal papilla cells (20,000 cells/ml). Subsequently, add 1 μl/well each of the ginseng extracts 1-7, the positive control minoxidil sulfate, and the blank control (DMSO), and continue culturing for 3 days. Remove the 1.0 μm of cell culture insert, add 50 μl/well of Cell Counting Kit-8 (Dojindo Molecular Technologies, Inc.), continue culturing for 2 hours, and determine cell number using a microplate reader (450 nm, Mix 0).
smiles,measurement,value
Nc1cc(N2CCCCC2)nc(N)[n+]1OS(=O)(=O)[O-] [minoxidil sulfate],proliferation of keratinocytes in co-culture system,no effect in promoting the proliferation of keratinocyte
